The target of assay [1] is Adenosine A2a (Homo sapiens, UniProt P29274). In words: Off‐target panel: Adenosine A2a. It is filed as cell-based. To be noted: Agonist, read-out: Mean (PXC50). The protocol: (§1) GSK716 selectivity and PK properties were profiled in order to investigate the suitability of GSK716 for progression into in vivo studies and the potential for taking it forward as a clinical candidate for testing in humans. Since GSK716 results in loss of inhibitory activity of α1‐antitrypsin, the effect of the compound was assessed on other closely related serpins. […] Furthermore, there were no off‐target effects in a panel of assays considered predictive of known safety liabilities that precluded further development of GSK716 (Table EV1).

Assay [2] concerns the target NMDA (NR2B) (Homo sapiens, UniProt Q05586+Q13224). In words: Off‐target panel: NMDA (NR2B). The format is cell-based. As to the method:
as §1

The target in assay [3] is Norepinephrine transporter (Homo sapiens, UniProt P23975). In words: Off‐target panel: Norepinephrine transporter (DRX). The format is cell-based. The protocol:
as §1

In assay [4] the target is OATP1B1 (Homo sapiens, UniProt Q9Y6L6). In words: Off‐target panel: OATP1B1. It is filed as in vitro ADME. The note with it: Inhibition, read-out: Mean (PXC50). As to the method: as §1
Assay [5] addresses OPRK1 (Homo sapiens, UniProt P41145). Kind of assay: Off‐target panel: OPRK1 (DRX). The format is cell-based. As to the method: as §1
Assay [6] addresses Vasopressin V1a (Homo sapiens, UniProt P37288). Kind of assay: Off‐target panel: Vasopressin V1a. It is filed as cell-based. The note with it: Antagonist, read-out: Mean (PXC50) (converted). As to the method: as §1
In assay [7] the target is Z α1‐antitrypsin (Homo sapiens, UniProt P01009, E366K). Kind of assay: Circulating monomeric Z α1‐antitrypsin in plasma of Z α1‐antitrypsin transgenic mice. It is filed as in vivo, mouse. The arrangement: random insertion of the human Z α1‐antitrypsin gene; from tissue; host or cells: hemizygous Z α1-antitrypsin transgenic mice (liver, plasma). As to the method: GSK716 was evaluated in a transgenic mouse model with an engineered random insertion of the human Z α1‐antitrypsin gene (Teckman et al, 2004). […] Further, older mice have larger α1‐antitrypsin inclusions that may be more difficult to reverse and any changes would be more difficult to detect than in younger animals. The PK‐PD relationship of GSK716 was explored by dosing Z α1‐antitrypsin transgenic animals with 10, 30 or 100 mg/kg GSK716 three times a day. Blood and liver were harvested on day 6 at 3 h (~ C max) and 8 h (C min) after the dose for the measurement of total and free drug in both tissues. Blood was also harvested for the measurement of monomeric Z α1‐antitrypsin in plasma. Total concentrations of GSK716 were determined by LC‐MS/MS, and the free drug in both tissues was determined using equilibrium dialysis to determine free fraction in the samples, subsequently used to derive unbound concentrations. […] Both free and total drug concentrations of GSK716 at the targeted site of action in the liver were equivalent to those in blood (Table 2).
A significant fraction of the total Z α1‐antitrypsin in the circulation is in the polymeric conformation (Tan et al, 2014). There are no antibodies that are specific for monomeric Z α1‐antitrypsin and so to directly determine its concentration, a deconvolution method was developed based on immunoassays with antibodies for either total or polymeric α1‐antitrypsin, and calibration curves with purified monomeric and polymeric Z α1‐antitrypsin. Monomeric Z α1‐antitrypsin was measured in plasma samples following 6 days of dosing, and levels were normalised to each animals’ pre‐dose control levels to account for the natural variation of Z α1‐antitrypsin between animals. […] Total drug levels and changes in Z α1‐antitrypsin following 3 days of dosing were indistinguishable from those following 6 days of dosing. There was no effect on circulating serum albumin after 5 days of dosing which provides evidence that GSK716 is specific for Z α1‐antitrypsin. Moreover, the effects are not mediated by metabolites of GSK716 as the major metabolites have much reduced or no binding to α1‐antitrypsin.
Plasma standards of monomeric and polymeric Z α1‐antitrypsin were prepared and assayed with an antibody mix comprising a 1:160 dilution of rabbit polyclonal anti‐ α1‐antitrypsin (Abcam product 9373), 0.23 µg/ml terbium anti‐mouse, 4.5 µg/ml Alexa488 goat anti‐rabbit, 0.17 µg/ml mouse anti‐total‐ α1‐antitrypsin monoclonal 3C11 and 2 µg/ml mouse 2C1 anti‐polymeric‐ α1‐antitrypsin. After a 16‐h incubation at 20°C, TR‐FRET detection was performed on an Envision plate reader (Perkin Elmer).
Plots of the FRET ratio (acceptor/donor signal) versus sample dilution result in bell‐shaped curves due to the hook effect. The polymer Z α1‐antitrypsin concentration was determined by comparing the peak positions of these bell‐shaped curves for plasma samples with those for polymer calibration samples. The polymer concentration in the plasma sample and the polymer calibration curve was then used to derive the contribution of polymer to the FRET signal in the total α1‐antitrypsin assay at the signal peak, enabling determination of the concentration of monomeric Z α1‐antitrypsin.
Hemizygous female Z α1‐antitrypsin transgenic mice were 13–15 weeks of age at start of study. Drugs were administered via oral gavage three times a day at 8‐h intervals at 10 ml/Kg as a suspension in aqueous methylcellulose containing 0.5% w/v Tween 80. […]

Z α1‐antitrypsin, sequence (P01009 25-418 E366K): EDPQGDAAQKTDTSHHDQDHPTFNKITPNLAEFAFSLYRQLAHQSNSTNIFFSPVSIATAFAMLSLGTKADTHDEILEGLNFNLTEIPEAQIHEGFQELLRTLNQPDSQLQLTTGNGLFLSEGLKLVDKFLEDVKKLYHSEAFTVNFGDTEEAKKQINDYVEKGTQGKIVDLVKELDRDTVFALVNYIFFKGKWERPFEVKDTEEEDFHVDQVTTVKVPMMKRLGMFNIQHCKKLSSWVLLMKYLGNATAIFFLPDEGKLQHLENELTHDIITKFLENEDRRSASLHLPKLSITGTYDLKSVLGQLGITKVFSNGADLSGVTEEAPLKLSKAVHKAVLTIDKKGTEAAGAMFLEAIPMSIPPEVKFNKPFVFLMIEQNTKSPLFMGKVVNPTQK
Norepinephrine transporter, sequence (P23975 whole entry, species assumed): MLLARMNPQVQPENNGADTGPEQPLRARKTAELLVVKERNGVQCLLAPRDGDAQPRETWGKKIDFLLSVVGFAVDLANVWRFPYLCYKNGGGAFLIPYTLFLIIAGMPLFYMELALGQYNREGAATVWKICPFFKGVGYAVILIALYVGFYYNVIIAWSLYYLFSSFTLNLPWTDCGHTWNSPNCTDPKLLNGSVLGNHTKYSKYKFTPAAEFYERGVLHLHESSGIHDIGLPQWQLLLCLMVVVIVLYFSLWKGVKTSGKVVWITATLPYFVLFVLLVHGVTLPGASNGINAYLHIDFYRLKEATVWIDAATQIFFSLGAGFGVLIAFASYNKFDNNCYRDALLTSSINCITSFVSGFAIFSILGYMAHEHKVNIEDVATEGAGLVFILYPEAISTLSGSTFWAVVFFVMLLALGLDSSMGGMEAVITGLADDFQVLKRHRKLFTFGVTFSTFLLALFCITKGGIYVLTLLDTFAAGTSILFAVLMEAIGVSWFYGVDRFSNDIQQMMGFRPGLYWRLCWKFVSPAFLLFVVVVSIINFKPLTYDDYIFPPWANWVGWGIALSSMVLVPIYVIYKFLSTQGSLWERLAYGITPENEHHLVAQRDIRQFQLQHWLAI
NMDA (NR2B), sequence (Q13224 27-1484, species assumed, other chains not shown): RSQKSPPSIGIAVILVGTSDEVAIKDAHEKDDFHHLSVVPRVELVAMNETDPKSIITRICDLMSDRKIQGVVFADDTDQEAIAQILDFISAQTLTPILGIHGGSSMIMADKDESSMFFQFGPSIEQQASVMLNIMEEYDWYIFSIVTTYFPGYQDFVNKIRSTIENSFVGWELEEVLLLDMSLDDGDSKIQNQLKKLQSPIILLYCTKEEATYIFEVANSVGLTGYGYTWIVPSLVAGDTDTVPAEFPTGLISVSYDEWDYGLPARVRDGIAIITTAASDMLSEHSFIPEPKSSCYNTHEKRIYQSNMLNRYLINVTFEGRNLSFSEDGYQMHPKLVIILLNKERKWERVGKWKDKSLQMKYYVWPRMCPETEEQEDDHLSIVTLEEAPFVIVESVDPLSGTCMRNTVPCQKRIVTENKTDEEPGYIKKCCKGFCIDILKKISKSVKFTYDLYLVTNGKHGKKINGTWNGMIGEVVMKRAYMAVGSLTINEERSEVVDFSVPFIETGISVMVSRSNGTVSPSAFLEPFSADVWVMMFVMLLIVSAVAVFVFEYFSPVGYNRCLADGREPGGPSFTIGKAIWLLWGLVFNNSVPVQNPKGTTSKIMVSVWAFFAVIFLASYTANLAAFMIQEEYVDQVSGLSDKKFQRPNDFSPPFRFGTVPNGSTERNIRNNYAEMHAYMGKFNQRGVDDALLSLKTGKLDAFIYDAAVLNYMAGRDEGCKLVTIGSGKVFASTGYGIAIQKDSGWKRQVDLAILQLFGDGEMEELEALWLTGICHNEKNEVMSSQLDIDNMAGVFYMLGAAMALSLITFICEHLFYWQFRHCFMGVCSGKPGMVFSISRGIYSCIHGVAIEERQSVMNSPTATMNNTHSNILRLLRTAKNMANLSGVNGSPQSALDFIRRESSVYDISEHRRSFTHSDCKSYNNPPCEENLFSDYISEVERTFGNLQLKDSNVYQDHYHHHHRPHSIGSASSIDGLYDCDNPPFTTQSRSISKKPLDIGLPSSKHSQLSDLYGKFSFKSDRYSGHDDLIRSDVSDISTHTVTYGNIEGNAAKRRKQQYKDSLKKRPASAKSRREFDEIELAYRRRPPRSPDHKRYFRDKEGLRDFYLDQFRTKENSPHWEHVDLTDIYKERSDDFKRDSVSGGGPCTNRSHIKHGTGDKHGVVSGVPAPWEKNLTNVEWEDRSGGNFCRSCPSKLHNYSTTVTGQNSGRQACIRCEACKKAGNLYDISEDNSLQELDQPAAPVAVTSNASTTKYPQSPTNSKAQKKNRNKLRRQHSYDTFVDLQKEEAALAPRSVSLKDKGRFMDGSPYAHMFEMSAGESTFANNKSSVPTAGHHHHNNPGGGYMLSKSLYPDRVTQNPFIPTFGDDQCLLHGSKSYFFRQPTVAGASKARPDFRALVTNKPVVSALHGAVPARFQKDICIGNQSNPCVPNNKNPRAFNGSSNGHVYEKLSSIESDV
OPRK1, sequence (P41145 whole entry, species assumed): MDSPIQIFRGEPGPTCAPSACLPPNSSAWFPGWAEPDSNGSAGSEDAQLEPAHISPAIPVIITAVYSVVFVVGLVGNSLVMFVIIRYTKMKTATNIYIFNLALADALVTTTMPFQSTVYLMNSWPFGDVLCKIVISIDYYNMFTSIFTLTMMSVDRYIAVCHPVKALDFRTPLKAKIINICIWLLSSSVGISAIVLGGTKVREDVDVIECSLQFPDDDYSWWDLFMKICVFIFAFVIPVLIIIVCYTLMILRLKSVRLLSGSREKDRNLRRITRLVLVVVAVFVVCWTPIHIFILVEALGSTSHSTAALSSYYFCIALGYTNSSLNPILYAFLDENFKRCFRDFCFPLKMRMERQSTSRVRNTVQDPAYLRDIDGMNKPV
Vasopressin V1a, sequence (P37288 whole entry): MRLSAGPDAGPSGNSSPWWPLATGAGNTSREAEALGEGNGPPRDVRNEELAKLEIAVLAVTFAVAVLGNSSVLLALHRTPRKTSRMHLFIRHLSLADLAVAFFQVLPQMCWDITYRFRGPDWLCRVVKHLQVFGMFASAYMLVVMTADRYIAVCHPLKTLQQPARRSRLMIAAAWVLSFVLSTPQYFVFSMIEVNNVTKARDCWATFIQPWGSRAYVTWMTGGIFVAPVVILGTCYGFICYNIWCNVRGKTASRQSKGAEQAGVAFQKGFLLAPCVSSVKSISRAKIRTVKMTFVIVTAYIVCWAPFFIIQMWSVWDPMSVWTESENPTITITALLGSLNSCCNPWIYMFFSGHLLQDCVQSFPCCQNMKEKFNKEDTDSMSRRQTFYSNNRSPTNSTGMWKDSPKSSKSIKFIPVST
Adenosine A2a, sequence (P29274 whole entry): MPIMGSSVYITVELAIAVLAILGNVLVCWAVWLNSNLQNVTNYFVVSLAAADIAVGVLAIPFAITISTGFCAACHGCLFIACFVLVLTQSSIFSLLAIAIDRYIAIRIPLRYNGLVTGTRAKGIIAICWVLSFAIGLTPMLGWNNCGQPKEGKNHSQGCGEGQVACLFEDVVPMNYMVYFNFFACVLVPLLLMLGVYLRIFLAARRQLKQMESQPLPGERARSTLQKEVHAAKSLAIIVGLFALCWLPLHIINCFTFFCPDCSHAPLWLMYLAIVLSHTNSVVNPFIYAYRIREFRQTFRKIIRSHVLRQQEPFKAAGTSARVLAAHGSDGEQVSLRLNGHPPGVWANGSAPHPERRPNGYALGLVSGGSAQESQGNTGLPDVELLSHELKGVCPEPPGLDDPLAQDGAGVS
OATP1B1, sequence (Q9Y6L6 whole entry, species assumed): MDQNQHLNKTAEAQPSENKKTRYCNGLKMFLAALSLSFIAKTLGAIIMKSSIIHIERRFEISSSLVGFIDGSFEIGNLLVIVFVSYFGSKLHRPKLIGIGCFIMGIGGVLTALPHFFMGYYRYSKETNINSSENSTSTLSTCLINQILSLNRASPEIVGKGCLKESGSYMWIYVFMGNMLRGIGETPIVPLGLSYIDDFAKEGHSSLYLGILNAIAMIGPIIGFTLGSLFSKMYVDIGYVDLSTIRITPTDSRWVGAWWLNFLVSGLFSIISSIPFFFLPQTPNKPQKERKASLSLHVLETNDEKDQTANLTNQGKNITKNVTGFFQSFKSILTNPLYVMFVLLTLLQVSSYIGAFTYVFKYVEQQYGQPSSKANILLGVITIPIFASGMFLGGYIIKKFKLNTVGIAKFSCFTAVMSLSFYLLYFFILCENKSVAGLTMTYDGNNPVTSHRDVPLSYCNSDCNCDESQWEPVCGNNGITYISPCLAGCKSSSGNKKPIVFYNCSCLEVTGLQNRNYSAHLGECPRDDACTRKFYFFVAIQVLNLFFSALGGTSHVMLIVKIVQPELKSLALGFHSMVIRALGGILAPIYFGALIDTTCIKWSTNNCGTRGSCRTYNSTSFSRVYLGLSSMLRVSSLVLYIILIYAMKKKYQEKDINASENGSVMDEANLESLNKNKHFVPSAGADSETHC

On to `CCC[C@@H](NC(=O)c1cccc2c1CC(=O)N2)[C@@H](O)c1cccc(F)c1C` [GSK716], for which the figures for the EC50 in assay [1] and in assay [5] were > 100 µM and 20 µM, respectively. Besides, the IC50 in assay [2] was > 50.1 µM; in assay [3], > 100 µM; in assay [4], > 50.1 µM; in assay [6], 39.8 µM. Moreover, the “change in circulating Z α1‐antitrypsin” value in assay [7] (10 mg/kg three times a day, oral, 6 days of dosing) is “significant, dose‐dependent increases”; in assay [7] (30 mg/kg three times a day, oral, 6 days of dosing), “significant, dose‐dependent increases”. Moreover, the “mean increase of monomeric Z α1‐antitrypsin in plasma over pre‐dosing baseline” value in assay [7] (100 mg/kg three times a day, days 15 and 21 of dosing) was “sevenfold to eightfold”. In assay [7] (100 mg/kg three times a day, oral, 6 days of dosing), the “mean increase in circulating monomeric Z α1‐antitrypsin levels over pre‐dose” value is given as “sevenfold”. Also, the “increase in circulating levels of Z α1‐antitrypsin” value in assay [7] (Z α1‐antitrypsin transgenic mice, within 3 days) was “sevenfold”.
